From patent publication US20230390235A1, “THERAPEUTIC AGENT FOR COVID-19” (priority 2020, published 2023)
Like-named read-outs stand apart in the source and are kept apart here.

Legend:
[1] = test system: SARS-CoV-2 virus (USA_WA1/2020); experiment: microbe, parasite or virus in culture; type: cell-based
in vivo = experiment: in vivo; design: species or system S.D. rats; settings: male, S.D., rat, po
Method: Male S.D. rats weighing 160 to 210 g were used for the examination of SJA-6017. Each animal was kept in a room at a temperature of 23±2° C., a humidity of 55±10%, with lighting for 12 hours, and a ventilation frequency of 15 times/hour or more. The rats were fasted from the night before administration and feeding was resumed immediately after the administration. Water was taken freely.
(§1) For the examination of SNJ-1945, four groups of 1, 3, 10, and 30 mg/kg (n=3 for each) were set. For the examination of SJA-6017, two groups of 100 mg/kg (n=3 for each) and 500 mg/kg (n=8 for each) were set.
For SJA-6017, sodium carboxymethylcellulose was dissolved in distilled water to a concentration of 0.5% (w/v). A test substance was suspended in the resultant to prepare samples having concentrations of 10% (for […]) and 2% (for 100 mg/kg).
(§2) SNJ-1945 was orally administered forcibly a single time by using a gastric sonde at doses of 1, 3, 10, and 30 mg/4 mL/kg. SJA-6017 was orally administered forcibly a single time using a gastric sonde at a dose of 5 mL/kg.
In the SJA-6017 administration group, blood samples were collected from the abdominal aorta under ether anesthesia 30 minutes and 1, 2, 4 and 8 hours after administration. The resulting blood was immediately centrifuged at 5,000 rpm for 10 minutes, and plasma was collected.
Plasma (200 μL) obtained from the SJA-6017 administration group was placed in a brown Spitz tube, and 0.01 M HCl (0.5 mL) was added thereto, and diethyl ether (3 mL) was further added, followed by shaking for 10 minutes. Thereafter, centrifugation (3,000 rpm) for 10 minutes was performed to separate the aqueous layer from the diethyl ether phase. The lower aqueous layer alone was frozen in dry-ice acetone, and the diethyl ether layer was separated into another brown Spitz tube. Thereafter, drying was conducted under reduced pressure, and acetonitrile (100 μL) and a 0.01M hydrochloric acid solution (200 μL) of 5 mM phenylhydrazine hydrochloride were added, followed by stirring and dissolving. The solution was transferred to an HPLC vial and allowed to react for 1 hour at 40° C. using a water bath. 150 μL of this sample solution was analyzed by HPLC.
• Detector: UV absorbance spectrophotometer (measurement • wavelength: 272 nm) • Column: Capcell-pak SG-120 (250 mm) • Column temperature: 40° C. • Mobile phase: 0.02 M phosphate buffer (pH of 7.0)/acetonitrile mixture (45:55) • Flow rate: 1.0 mL/min
Cmax and AUC0-8 were calculated from the mean plasma concentration at each time point.

[2] = Pharmacokinetic (PK) measurement of SNJ-1945, oral, rats, LC/MS/MS; type: in vivo; settings: male, S.D., rat plasma; for AUC(0-t): read-out: AUC0-8
Method: Eight-week-old male S.D. rats were used for the examination of SNJ-1945. Each animal was kept in a room at a temperature of 21.6° C. to 22.3° C., a humidity of 47.7% to 60.3%, with lighting for 12 hours/day, and a ventilation frequency of 6 to 20 times/hour. The rats were fasted from the evening of the day before administration, and feeding was resumed after the completion of blood sampling, which was conducted 8 hours after the administration. Water was taken freely.
as §1
For SNJ-1945, methylcellulose was dissolved in water for injection to a concentration of 1 w/v %. A test substance was suspended in the resultant to prepare samples having concentrations of 0.25 mg/mL (for 1 mg/kg), 0.75 mg/mL (for 3 mg/kg), 2.5 mg/mL (for 10 mg/kg), and 7.5 mg/mL (for 30 mg/kg). The administration solution was dispensed into brown glass bottles.
as §2
In the SNJ-1945 administration group, blood samples were taken over time from the subclavian vein 30 minutes and 1, 2, 4, and 8 hours after administration. The obtained blood was immediately centrifuged at 10000×g for 3 minutes, and plasma was collected.
Plasma (20 μL) obtained from the SNJ-1945 administration group was placed in a polypropylene tube, methanol (20 μL) was added thereto, and an internal standard solution (SNJ-1945-d7; 100 μL) was added thereto, followed by stirring for about 5 minutes. Thereafter, centrifugation (10,000×g) was performed for 5 minutes, and 100 μL of a supernatant was transferred to another polypropylene tube. 1 mmol/L EDTA-2K (100 μL) was added, followed by stirring for about 10 seconds. The solution was set in an autosampler and measured within 72 hours.
A Shimadzu 20AD LC System 2 (prominence UFLCXR system; Shimadzu Corporation) and a mass spectrometer (API5000; AB SCIEX) were used as measuring instruments. High-performance liquid chromatography was performed according to the following conditions. Column: CAPCELL CORE AQ, 2.7 μm, 2.1×50 mm (Shiseido Japan Co., Ltd.); column temperature: 60° C.; mobile phase A: 5 mmol/L ammonium hydrogen carbonate/l mmol/LEDTA-2K (500:1, v/v); mobile phase B: methanol; flow rate: 0.8 mL/min.
The mass spectrometer was set according to the following conditions: ionization mode: turbo ion spray; measurement mode: multiple reaction monitoring; detection mode: negative; collision gas: N2, 6 (number of valves opened); curtain gas: N2, 15 psi, ion source gas 1: air, 80 psi; ion source gas 2: air, 80 psi; ion spray voltage: −4500 V; temperature: 500° C.; channel electron multiplier: 1800 V or 2000 V. Monitoring ions and dwell time were set as shown in Table 4 below.
The measurement results of plasma concentration were analyzed by non-compartmental analysis in the pharmacokinetic analysis software Phoenix WinNonlin Ver. 6.3 (Pharsight Corporation as part of Certara), and each pharmacokinetic parameter was calculated in accordance with the method shown in Table 5 below.

[3] = test system: ACE2-expressing HEK293T cells
[4] = test system: SARS-CoV-2 S pseudotype virus (wild type: WT); type: cell-based; settings: 100 μM, ACE2-expressing HEK293T cells, GFP fluorescence, FIG. 1
[5] = Severe acute respiratory syndrome coronavirus 2, Vero C1008, 72 h, read-out: CPE reduction (IC50)
[6] = Severe acute respiratory syndrome coronavirus 2, Vero C1008, 72 h; read-out: CPE reduction (IC50)

Q: For `CCN(CC)CCCC(C)Nc1ccnc2cc(Cl)ccc12` (centres unmarked) [Chloroquine], which IC50 [1, 5] is on record?
A: 2.06 µM

Q: With `CCOC(=O)[C@H]1O[C@@H]1C(=O)N[C@@H](CC(C)C)C(=O)NCCC(C)C` [E64d] as the molecule, how does the IC50 ([1]; read-out: CPE reduction (IC50)) read?
A: 8.23 µM

Q: Which IC50 [1, 5] does the source give for `CCN(CCO)CCCC(C)Nc1ccnc2cc(Cl)ccc12` (centres unmarked) [Hydroxychloroquine] here?
A: 6.49 µM

Q: With `CCC(CC)COC(=O)[C@H](C)N[P@](=O)(OC[C@H]1O[C@@](C#N)(c2ccc3c(N)ncnn23)[C@H](O)[C@@H]1O)Oc1ccccc1` [Remdesivir] as the molecule, how does the IC50 [1, 5] read?
A: 10.6 µM

Q: With `CC(C)C[C@@H](C=O)NC(=O)[C@@H](NS(=O)(=O)c1ccc(F)cc1)C(C)C` [SJA-6017] as the molecule, how does the AUC(0-t) (in vivo; 100 mg/kg) read?
A: 679 ng·h/mL

Q: And the Cmax (in vivo; 100 mg/kg)?
A: 284 ng/mL

Q: What about the AUC(0-t) (in vivo; 500 mg/kg) of the same molecule?
A: 1840 ng·h/mL

Q: What about the Cmax (in vivo; 500 mg/kg) of the same molecule?
A: 348 ng/mL

Q: What about the IC50 [1, 6] of the same molecule?
A: 0.21 µM

Q: Which Cmax ([2]; single oral dose 1 mg/kg) does the source give for `COCCOCCOC(=O)N[C@@H](CC(C)C)C(=O)N[C@@H](Cc1ccccc1)C(=O)C(=O)NC1CC1` [SNJ-1945] here?
A: 186 ng/mL

Q: What about the AUC(0-t) ([2]; single oral dose 1 mg/kg) of the same molecule?
A: 168 ng·h/mL

Q: And the Cmax ([2]; single oral dose 3 mg/kg)?
A: 391 ng/mL

Q: What about the AUC(0-t) ([2]; single oral dose 3 mg/kg) of the same molecule?
A: 380 ng·h/mL

Q: And the Cmax ([2]; single oral dose 10 mg/kg)?
A: 553 ng/mL

Q: And the AUC(0-t) ([2]; single oral dose 10 mg/kg)?
A: 691 ng·h/mL

Q: What about the Cmax ([2]; single oral dose 30 mg/kg) of the same molecule?
A: 821 ng/mL

Q: What about the AUC(0-t) ([2]; single oral dose 30 mg/kg) of the same molecule?
A: 1170 ng·h/mL

Q: What about the “highest concentration at which test compound did not show cytotoxicity” value [3] of the same molecule?
A: 100 µM

Q: And the IC50 [1, 6]?
A: 1.52 µM

Q: And the “entry inhibition of pseudotype virus into cells” value [4]?
A: inhibits entry
